Tests used:
[1] = tested on: anti-Factor Xa Activity of the Low Molecular Weight Heparin Lovenox ®; assay: Anti-Factor Xa assay (Stachrom Heparin kit): neutralization of Lovenox in citrate or plasma in vitro; assay type: biochemical, human; details: for Lovenox ® Neutralized: Lovenox 0.7 U/ml; for anti-Factor Xa activity of LMWH neutralized: 12 μg/ml, plasma; for anti-LMWH effect in citrate compared with plasma: Table 2A
Protocol: The ability of peptides such as (ARKKAAKA)3VLVLVLVL (SEQ ID NO:5) to neutralize the anti-Factor Xa activity of UFH and LMWH in vitro was tested using the Stachrom Heparin kit (Diagnostica Stago), a standard hematology laboratory assay used to measure the anti-Factor Xa activity of heparin. The assay was performed using the low molecular weight heparin enoxaparin sodium (Lovenox®, Aventis Pharmaceuticals, Inc.), unfractionated heparin (UFH), or the non-heparin glycosaminoglycan danaparoid sodium (Orgaran®, Organon Inc., West Orange, N.J.) in 0.32% citrate or in plasma anticoagulated with 0.32% citrate. Enoxaparin is commonly used clinically as a low molecular weight heparin (LMWH). Danaparoid is commonly used clinically as a non-heparin glycosaminoglycan anticoagulant. Currently, the only FDA approved drug to target UFH is protamine, which is not effective in vivo against LMWH or a non-heparin glycosaminoglycan such as danaparoid. Buffer and ATIII are added to form the heparin/ATIII complex, peptide is added, then Factor Xa, reporter dye substrate for Factor Xa activity, and stop solution, and the dye concentration is read at 405 nm. The absorbance of the dye increases with increasing Factor Xa activity, and thus is inversely proportional to the heparin (anti-Factor Xa activity) concentration. Peptides were tested in plasma obtained from three volunteers (A, B, and C). Platelet function inhibitors PG12 and theophylline were added to the blood immediately upon collection.
Results. […] (ARKKAAKA)3VLVLVLVL (SEQ ID NO:5) and VLVL(ARKKAAKA)3ARKKCAKA (SEQ ID NO:38) were able to neutralize about 0.4 U/ml anti-Factor Xa activity of LMWH at a concentration of 12 μg/ml, which would be an effective dose for patients. (AKKARA)6 (SEQ ID […]), (ARKKAAKA)4 (SEQ ID NO:31) and (ARKKAAKA)3ARKKCAKA […] 0.3-0.35 U/ml. In contrast, 12 μg protamine only neutralized about 0.25 U/ml of LMWH under these conditions.

[2] = tested on: Lovenox ® Activity in Blood from Patients Treated with Lovenox ®; assay: Neutralizing Lovenox activity in blood from patients treated with Lovenox (anti-Factor Xa assay); assay type: biochemical, human; details: for Lovenox ® Neutralized: Peptide 12 μg/ml
Protocol: Blood was obtained from volunteers who were being treated with Lovenox® for their medical conditions after obtaining signatures on informed consent forms as approved by the Institutional Review Board. The assays to test neutralization of Lovendx® were performed as described for Table 2. A dose response from 1-60 μg/ml was evaluated as in Table 2.
The dose response pattern for the effective peptides was similar to the dose response in control plasma to which Lovenox® had been added. Each data point represents the mean and standard deviation of triplicate analyses on the same sample of blood from each patient.

[3] = Affinity coelectrophoresis (ACE) of peptide binding to radiolabeled low Mr heparin; parameters: species or system pig; details: pH 7.0, mean and standard deviation of four assays, read-out: Kd (nM), affinity for low molecular weight heparin
Excerpt: Preparation of Radiolabeled Heparin. Whole heparin from pig intestinal mucosa (Sigma) was tyramine end-labeled and radiolabeled with Na^125I (Amersham, Pharmacia Biotech, Inc., Piscataway, N.J.) to an average specific activity≅1.0×10^7 CPM/μg as described (San Antonio, J. D., et al., Biochemistry, 32:4746-4755, 1993). Radiolabeled heparin was fractionated on Sephadex G-100 (Bio-Rad Laboratories, Hercules, Calif.) and the final≅12% of material to elute was retained as the low Mr material of ≦6,000 (Jordan, R., D. Beeler, and R. Rosenberg, J. Biol. Chem., 254:2902-2913, 1979; Laurent, T. C., et al., Biochem. J., 175:691-701, 1978).
Analysis of Peptide-Heparin Interactions by Affinity Coelectrophoresis (ACE). ACE was used to study interactions between peptides and low molecular weight (low Mr) heparin (WO00/45831). In ACE, trace concentrations of radiolabeled heparin are electrophoresed through agarose lanes containing peptides at various concentrations. These analyses are used to determine the dissociation constants (Kd's). The electrophoretic patterns of radiolabeled heparin are then visualized using a phosphorimager, and the dissociation constant (Kd) corresponds to the protein concentration at which the heparin is half shifted from being fully mobile at very low protein concentrations to maximally retarded at saturating protein concentrations. The lower the Kd value, the higher the affinity.
Binding of radiolabeled heparin to peptides was studied by ACE as detailed elsewhere (San Antonio, J. D., et al., Biochemistry, 32:4746-4755, 1993). […] Briefly, peptides were dissolved in 1×ACE running buffer, 50 mM sodium 3-(N-morpholino)-2-hydroxypropanesulfonate (MOPSO, Sigma)/125 mM sodium acetate, pH 7.0, and serially diluted in running buffer at 2× concentrations. Peptides were then mixed 1:1 with 2% agarose/1% CHAPS, 3-[(3-cholamidopropyl)dimethylammonio]-1-propanesulfonate, (Boehringer Mannheim, Indianapolis, Ind.), and loaded into wells of a 1% agarose gel. Radiolabeled heparin was then loaded in a slot on the anode side of the gel, and electrophoresed through the peptide-containing wells, towards the cathode. Gels were dried and PG mobility was measured with a Phosphorimager (Molecular Dynamics, Sunnyvale, Calif.) by scanning each protein lane and determining the relative radioactivity content per 88-μm pixel through the length of the lane. Retardation coefficient (R) measurements, binding isotherm curve fittings, and apparent Kd value determinations were calculated as detailed previously (Lee, M. K., and A. D. Lander, Proc. Natl. Acad. Sci. USA, 88:2768-2772, 1991; San Antonio, J. D., et al, Biochemistry, 32:4746-4755, 1993).
Retardation coefficients (R) for the migration of low Mr 1^25I-tyramine-heparin through peptides were determined from ACE gel electrophoretograms, and are plotted against peptide concentration. Smooth curves represent non-linear least-squares fits to the equation R=R∞/{1+(Kd/[peptide])^n}.

[4] = blood of Lovenox-treated Patient Number 1
[5] = blood of Lovenox-treated Patient Number 2
[6] = blood of Lovenox-treated Patient Number 3
[7] = blood of Lovenox-treated Patient Number 4
[8] = blood of Lovenox-treated Patient Number 5
[9] = blood of Lovenox-treated Patient Number 8
[10] = blood of Lovenox-treated Patient Number 9
[11] = blood of Lovenox-treated Patient Number 10
[12] = blood of Lovenox-treated Patient Number 11

In the case of “VLVL(ARKKAAKA)3ARKKCAKA (VLVLARKKAAKAARKKAAKAARKKAAKAARKKCAKA; Fragment)”, the “rank as neutralizing agent of Lovenox” value [1] is reported as “most effective neutralizing agents”, the “Lovenox ® Neutralized” value ([1]; 1 μg/ml Peptide, A Plasma) is reported as 0.080 ± .036 U/ml and the “Lovenox ® Neutralized” value ([1]; 1 μg/ml Peptide, B Plasma) is reported as 0.071 ± 0.056 U/ml. For the same substance, the “Lovenox ® Neutralized” value ([1]; 1 μg/ml Peptide, C Plasma) was 0.077 ± 0.055 U/ml, the “Lovenox ® Neutralized” value ([1]; 1 μg/ml Peptide, Citrate) was 0.091 ± .053 U/ml and the “Lovenox ® Neutralized” value ([1]; 6 μg/ml Peptide, A Plasma) was 0.218 ± .026 U/ml. For the same substance, the “Lovenox ® Neutralized” value ([1]; 6 μg/ml Peptide, B Plasma) was 0.233 ± 0.025 U/ml, the “Lovenox ® Neutralized” value ([1]; 6 μg/ml Peptide, C Plasma) was 0.217 ± 0.154 U/ml and the “Lovenox ® Neutralized” value ([1]; 6 μg/ml Peptide, Citrate) was 0.432 ± .086 U/ml. For the same substance, the “Lovenox ® Neutralized” value ([1]; 12 μg/ml Peptide, A Plasma) was 0.365 ± .076 U/ml, the “Lovenox ® Neutralized” value ([1]; 12 μg/ml Peptide, B Plasma) was 0.290 ± 0.047 U/ml and the “Lovenox ® Neutralized” value ([1]; 12 μg/ml Peptide, C Plasma) was 0.380 ± 0.045 U/ml. For the same substance, the “Lovenox ® Neutralized” value ([1]; 12 μg/ml Peptide, Citrate) was 0.484 ± .012 U/ml, the “anti-Factor Xa activity of LMWH neutralized” value [1] was “about 0.4 U/ml” and the “Lovenox ® Neutralized” value ([1]; 60 μg/ml Peptide, A Plasma) was 0.483 ± .070 U/ml. The “Lovenox ® Neutralized” value ([1]; 60 μg/ml Peptide, B Plasma) was 0.456 ± 0.029 U/ml, the “Lovenox ® Neutralized” value ([1]; 60 μg/ml Peptide, C Plasma) was 0.461 ± 0.05 U/ml and the “Lovenox ® Neutralized” value ([1]; 60 μg/ml Peptide, Citrate) was 0.550 ± .027 U/ml. The “Lovenox ® Neutralized” value ([1]; 120 μg/ml Peptide, A Plasma) was 0.674 ± .105 U/ml, the “Lovenox ® Neutralized” value ([1]; 120 μg/ml Peptide, B Plasma) was 0.515 ± 0.005 U/ml and the “Lovenox ® Neutralized” value ([1]; 120 μg/ml Peptide, C Plasma) was 0.483 ± 0.044 U/ml. The “Lovenox ® Neutralized” value ([1]; 120 μg/ml Peptide, Citrate) was 0.533 ± .017 U/ml, the “anti-LMWH effect in citrate compared with plasma” value [1] was “greater anti-LMWH effect in citrate than in plasma” and the “Lovenox/LMWH neutralization compared with protamine” value ([1]; low concentrations, in the presence of plasma) was “more effective than protamine”. The “Lovenox ® Neutralized” value [2, 4] was 0.043 U/ml, the “Lovenox ® Neutralized” value [2, 5] was 0.335 U/ml and the “Lovenox ® Neutralized” value [2, 6] was 0.008 U/ml. The “Lovenox ® Neutralized” value [2, 7] was 0.172 U/ml, the “Lovenox ® Neutralized” value [2, 8] was 0.110 U/ml and the “Lovenox ® Neutralized” value [2, 9] was 0.329 U/ml. The “Lovenox ® Neutralized” value [2, 10] was 0.200 U/ml, the “Lovenox ® Neutralized” value [2, 11] was 0.184 U/ml and the “Lovenox ® Neutralized” value [2, 12] was 0.240 U/ml. For the same substance, the Kd [3] was 48 ± 11 nM.

For Protamine [reference compound], the “Lovenox ® Neutralized” value ([1]; 1 μg/ml Peptide, A Plasma) was 0.038 ± 0.036 U/ml, the “Lovenox ® Neutralized” value ([1]; 1 μg/ml Peptide, B Plasma) was 0.086 ± 0.004 U/ml and the “Lovenox ® Neutralized” value ([1]; 1 μg/ml Peptide, C Plasma) was 0.070 ± 0.050 U/ml. For the same substance, the “Lovenox ® Neutralized” value ([1]; 1 μg/ml Peptide, Citrate) was 0.050 ± 0.016 U/ml, the “Lovenox ® Neutralized” value ([1]; 6 μg/ml Peptide, A Plasma) was 0.177 ± 0.033 U/ml and the “Lovenox ® Neutralized” value ([1]; 6 μg/ml Peptide, B Plasma) was 0.200 ± 0.026 U/ml. The “Lovenox ® Neutralized” value ([1]; 6 μg/ml Peptide, C Plasma) was 0.232 ± 0.065 U/ml, the “Lovenox ® Neutralized” value ([1]; 6 μg/ml Peptide, Citrate) was 0.256 ± 0.060 U/ml and the “Lovenox ® Neutralized” value ([1]; 12 μg/ml Peptide, A Plasma) was 0.232 ± 0.067 U/ml. For the same substance, the “Lovenox ® Neutralized” value ([1]; 12 μg/ml Peptide, B Plasma) was 0.249 ± 0.039 U/ml, the “Lovenox ® Neutralized” value ([1]; 12 μg/ml Peptide, C Plasma) was 0.285 ± 0.041 U/ml and the “Lovenox ® Neutralized” value ([1]; 12 μg/ml Peptide, Citrate) was 0.591 ± 0.032 U/ml. The “anti-Factor Xa activity of LMWH neutralized” value [1] was “about 0.25 U/ml”, the “Lovenox ® Neutralized” value ([1]; 60 μg/ml Peptide, A Plasma) was 0.515 ± 0.066 U/ml and the “Lovenox ® Neutralized” value ([1]; 60 μg/ml Peptide, B Plasma) was 0.574 ± 0.022 U/ml. The “Lovenox ® Neutralized” value ([1]; 60 μg/ml Peptide, C Plasma) was 0.465 ± 0.021 U/ml, the “Lovenox ® Neutralized” value ([1]; 60 μg/ml Peptide, Citrate) was 0.570 ± 0.033 U/ml and the “Lovenox ® Neutralized” value ([1]; 120 μg/ml Peptide, A Plasma) was 0.562 ± 0.035 U/ml. The “Lovenox ® Neutralized” value ([1]; 120 μg/ml Peptide, B Plasma) was 0.592 ± 0.037 U/ml, the “Lovenox ® Neutralized” value ([1]; 120 μg/ml Peptide, C Plasma) was 0.499 ± 0.16 U/ml and the “Lovenox ® Neutralized” value ([1]; 120 μg/ml Peptide, Citrate) was 0.480 ± 0.058 U/ml. For the same substance, the “anti-LMWH effect in citrate compared with plasma” value [1] was “greater anti-LMWH effect in citrate than in plasma”, the “effectiveness in neutralizing Lovenox in blood of patients” value [2] was “neutralized Lovenox® in the blood of just one patient” and the “Lovenox ® Neutralized” value [2, 4] was 0.016 U/ml. For the same substance, the “Lovenox ® Neutralized” value [2, 5] was 0.022 U/ml, the “Lovenox ® Neutralized” value [2, 6] was 0 U/ml and the “Lovenox ® Neutralized” value [2, 7] was 0.092 U/ml. The “Lovenox ® Neutralized” value [2, 8] was 0.013 U/ml, the “Lovenox ® Neutralized” value [2, 9] was 0.018 U/ml and the “Lovenox ® Neutralized” value [2, 10] was 0.244 U/ml. The “Lovenox ® Neutralized” value [2, 11] was 0.069 U/ml and the “Lovenox ® Neutralized” value [2, 12] was 0.021 U/ml.

Source: patent US7259140B2, “Heparin-binding peptides and uses thereof” (Thomas Jefferson University, priority 2003, dated 2007)
